The text below walks through data of the NIST ThermoML archive (doi:10.1021/acs.jced.8b00663).

The conditions of data set [1]: Crystal; DTA.
Data set [2] is described as follows: Molar enthalpy of transition or fusion. The note with it: Crystal; DSC.

Molecules are shown by their SMILES. ± gives the expanded uncertainty stated by the source.

Consider `CCOC(=O)C1=C[C@]2(CC)CCCN3CCc4c(n1c1ccccc41)[C@@H]32` [vinpocetine], for which, in data set [1], the Normal melting temperature is 149.00 ± 1.1 °C. The “Molar enthalpy of transition or fusion” value in data set [2] was found to be 8.93 ± 0.406 kcal/mol.
